In paper PMC10313671, “Accelerating the prediction and discovery of peptide hydrogels with human-in-the-loop” (Nature Communications, 2023):
Where a SMILES comes first, the peptide text is derived from it.

assay: Peptide hydrogel formation, vial-inverting method; format: physicochemical; set-up: key to EXP / GELATION: 0: no hydrogel; 1: hydrogel; conditions: 30 mM peptide in ultrapure water; pH adjusted to 6.5-8.5 with 1 N NaOH, ultrasonication, standing 48 h; vial-inverting method; concentration raised 30/60/90/120 mM until gelation
Method: After validating the efficiency of APHC in predicting tetrapeptide hydrogels, we detailed the phase state of 165 synthesized tetrapeptides and the observed assembly behavior in an aqueous solution.
This work defines hydrogel formation as a self-supporting, non-flowing mixture of water and hydrogelator by the vial-inverting method. All purified tetrapeptides were dissolved in ultrapure water (to form a 30 mM solution initially), followed by the stepwise addition of 1 N NaOH solution to adjust the overall aqueous pH to 6.5–8.5. Meanwhile, a short-term ultrasonication treatment was applied after each pH adjustment to facilitate peptide solubilization and speed up peptide self-assembly. […] The mixture was allowed to stand in for another 48 h for complete hydrogelation. Upon the absence of gelation phenomenon during the aforementioned loops, we increased the peptide concentration (60 mM, 90 mM, and 120 mM were selected) and re-started such gelation operation loop to explore their gelation feasibility.

SMILES | State
N[C@@H](CO)C(=O)N[C@@H](CO)C(=O)N[C@@H](Cc1ccccc1)C(=O)N[C@@H](Cc1ccccc1)C(=O)O [SSFF] (H-SSFF-OH) | gel
CC[C@H](C)[C@H](NC(=O)[C@H](CC(C)C)NC(=O)[C@@H](NC(=O)[C@@H](N)CC(C)C)[C@@H](C)O)C(=O)O [LTLI] (H-LTLI-OH) | gel
C[C@H](NC(=O)[C@@H](N)Cc1c[nH]c2ccccc12)C(=O)N[C@@H](Cc1ccc(O)cc1)C(=O)N[C@@H](Cc1ccccc1)C(=O)O [WAYF] (H-WAYF-OH) | gel
CC(C)[C@H](NC(=O)[C@@H](N)Cc1c[nH]c2ccccc12)C(=O)N[C@@H](Cc1ccccc1)C(=O)N[C@@H](Cc1ccc(O)cc1)C(=O)O [WVFY] (H-WVFY-OH) | gel
NCC(=O)N[C@@H](Cc1ccccc1)C(=O)N[C@@H](Cc1ccccc1)C(=O)N[C@@H](Cc1ccc(O)cc1)C(=O)O [GFFY] (H-GFFY-OH) | gel
CC(C)C[C@H](N)C(=O)N[C@@H](Cc1c[nH]c2ccccc12)C(=O)N[C@@H](Cc1c[nH]c2ccccc12)C(=O)N[C@@H](Cc1ccccc1)C(=O)O [LWWF] (H-LWWF-OH) | gel
NC(=O)C[C@H](N)C(=O)N[C@@H](Cc1c[nH]c2ccccc12)C(=O)N[C@@H](Cc1c[nH]c2ccccc12)C(=O)N[C@@H](Cc1ccccc1)C(=O)O [NWWF] (H-NWWF-OH) | gel
CC[C@H](C)[C@H](N)C(=O)N[C@H](C(=O)N[C@H](C(=O)N[C@@H](Cc1ccccc1)C(=O)O)[C@@H](C)CC)C(C)C [IVIF] (H-IVIF-OH) | gel

same assay, conditions: 60 mM peptide in ultrapure water; pH 6.5-8.5 (1 N NaOH), ultrasonication, standing 48 h; vial-inverting method; no gel at 30 mM

SMILES | State
CC(C)[C@H](NC(=O)[C@@H]1CCCN1)C(=O)N[C@@H](Cc1ccccc1)C(=O)N[C@@H](Cc1c[nH]c2ccccc12)C(=O)O [PVFW] (H-PVFW-OH) | gel
CC(C)[C@H](NC(=O)[C@@H](NC(=O)[C@H](C)NC(=O)[C@@H](N)Cc1c[nH]c2ccccc12)C(C)C)C(=O)O [WAVV] (H-WAVV-OH) | gel
CC(C)C[C@H](N)C(=O)N[C@@H](CO)C(=O)N[C@@H](Cc1ccccc1)C(=O)N[C@@H](Cc1c[nH]c2ccccc12)C(=O)O [LSFW] (H-LSFW-OH) | gel

same assay, conditions: 120 mM peptide (highest tested) in ultrapure water; pH 6.5-8.5 (1 N NaOH), ultrasonication, standing 48 h; vial-inverting method; precipitate, sol, suspension = no gel

SMILES | State
N[C@@H](CC(=O)O)C(=O)N[C@@H](CC(=O)O)C(=O)N[C@@H](CC(=O)O)C(=O)N[C@@H](CC(=O)O)C(=O)O [DDDD] (H-DDDD-OH) | sol

same assay, conditions: concentration at which the state was recorded: lowest of 30, 60, 90, 120 mM that gave a gel; 120 mM for non-gelating peptides

SMILES | Concentration [µM]
N[C@@H](CC(=O)O)C(=O)N[C@@H](CC(=O)O)C(=O)N[C@@H](CC(=O)O)C(=O)N[C@@H](CC(=O)O)C(=O)O [DDDD] (H-DDDD-OH) | 120000
CC(C)[C@H](NC(=O)[C@@H]1CCCN1)C(=O)N[C@@H](Cc1ccccc1)C(=O)N[C@@H](Cc1c[nH]c2ccccc12)C(=O)O [PVFW] (H-PVFW-OH) | 60000
N[C@@H](CO)C(=O)N[C@@H](CO)C(=O)N[C@@H](Cc1ccccc1)C(=O)N[C@@H](Cc1ccccc1)C(=O)O [SSFF] (H-SSFF-OH) | 30000
CC[C@H](C)[C@H](NC(=O)[C@H](CC(C)C)NC(=O)[C@@H](NC(=O)[C@@H](N)CC(C)C)[C@@H](C)O)C(=O)O [LTLI] (H-LTLI-OH) | 30000
C[C@H](NC(=O)[C@@H](N)Cc1c[nH]c2ccccc12)C(=O)N[C@@H](Cc1ccc(O)cc1)C(=O)N[C@@H](Cc1ccccc1)C(=O)O [WAYF] (H-WAYF-OH) | 30000
CC(C)[C@H](NC(=O)[C@@H](N)Cc1c[nH]c2ccccc12)C(=O)N[C@@H](Cc1ccccc1)C(=O)N[C@@H](Cc1ccc(O)cc1)C(=O)O [WVFY] (H-WVFY-OH) | 30000
NCC(=O)N[C@@H](Cc1ccccc1)C(=O)N[C@@H](Cc1ccccc1)C(=O)N[C@@H](Cc1ccc(O)cc1)C(=O)O [GFFY] (H-GFFY-OH) | 30000
CC(C)[C@H](NC(=O)[C@@H](NC(=O)[C@H](C)NC(=O)[C@@H](N)Cc1c[nH]c2ccccc12)C(C)C)C(=O)O [WAVV] (H-WAVV-OH) | 60000
CC(C)C[C@H](N)C(=O)N[C@@H](Cc1c[nH]c2ccccc12)C(=O)N[C@@H](Cc1c[nH]c2ccccc12)C(=O)N[C@@H](Cc1ccccc1)C(=O)O [LWWF] (H-LWWF-OH) | 30000
NC(=O)C[C@H](N)C(=O)N[C@@H](Cc1c[nH]c2ccccc12)C(=O)N[C@@H](Cc1c[nH]c2ccccc12)C(=O)N[C@@H](Cc1ccccc1)C(=O)O [NWWF] (H-NWWF-OH) | 30000
CC(C)C[C@H](N)C(=O)N[C@@H](CO)C(=O)N[C@@H](Cc1ccccc1)C(=O)N[C@@H](Cc1c[nH]c2ccccc12)C(=O)O [LSFW] (H-LSFW-OH) | 60000
CC[C@H](C)[C@H](N)C(=O)N[C@H](C(=O)N[C@H](C(=O)N[C@@H](Cc1ccccc1)C(=O)O)[C@@H](C)CC)C(C)C [IVIF] (H-IVIF-OH) | 30000

same assay, conditions: peptide concentration 30 mM; vial-inverting method; 1 = hydrogel, 0 = no hydrogel

SMILES | GELATION
N[C@@H](CO)C(=O)N[C@@H](CO)C(=O)N[C@@H](Cc1ccccc1)C(=O)N[C@@H](Cc1ccccc1)C(=O)O [SSFF] (H-SSFF-OH) | 1
CC[C@H](C)[C@H](NC(=O)[C@H](CC(C)C)NC(=O)[C@@H](NC(=O)[C@@H](N)CC(C)C)[C@@H](C)O)C(=O)O [LTLI] (H-LTLI-OH) | 1
C[C@H](NC(=O)[C@@H](N)Cc1c[nH]c2ccccc12)C(=O)N[C@@H](Cc1ccc(O)cc1)C(=O)N[C@@H](Cc1ccccc1)C(=O)O [WAYF] (H-WAYF-OH) | 1
CC(C)[C@H](NC(=O)[C@@H](N)Cc1c[nH]c2ccccc12)C(=O)N[C@@H](Cc1ccccc1)C(=O)N[C@@H](Cc1ccc(O)cc1)C(=O)O [WVFY] (H-WVFY-OH) | 1
NCC(=O)N[C@@H](Cc1ccccc1)C(=O)N[C@@H](Cc1ccccc1)C(=O)N[C@@H](Cc1ccc(O)cc1)C(=O)O [GFFY] (H-GFFY-OH) | 1
CC(C)C[C@H](N)C(=O)N[C@@H](Cc1c[nH]c2ccccc12)C(=O)N[C@@H](Cc1c[nH]c2ccccc12)C(=O)N[C@@H](Cc1ccccc1)C(=O)O [LWWF] (H-LWWF-OH) | 1
NC(=O)C[C@H](N)C(=O)N[C@@H](Cc1c[nH]c2ccccc12)C(=O)N[C@@H](Cc1c[nH]c2ccccc12)C(=O)N[C@@H](Cc1ccccc1)C(=O)O [NWWF] (H-NWWF-OH) | 1
CC[C@H](C)[C@H](N)C(=O)N[C@H](C(=O)N[C@H](C(=O)N[C@@H](Cc1ccccc1)C(=O)O)[C@@H](C)CC)C(C)C [IVIF] (H-IVIF-OH) | 1

same assay, conditions: peptide concentration 60 mM; vial-inverting method; 1 = hydrogel, 0 = no hydrogel

SMILES | GELATION
CC(C)[C@H](NC(=O)[C@@H]1CCCN1)C(=O)N[C@@H](Cc1ccccc1)C(=O)N[C@@H](Cc1c[nH]c2ccccc12)C(=O)O [PVFW] (H-PVFW-OH) | 1
CC(C)[C@H](NC(=O)[C@@H](NC(=O)[C@H](C)NC(=O)[C@@H](N)Cc1c[nH]c2ccccc12)C(C)C)C(=O)O [WAVV] (H-WAVV-OH) | 1
CC(C)C[C@H](N)C(=O)N[C@@H](CO)C(=O)N[C@@H](Cc1ccccc1)C(=O)N[C@@H](Cc1c[nH]c2ccccc12)C(=O)O [LSFW] (H-LSFW-OH) | 1

same assay, conditions: peptide concentration 120 mM; vial-inverting method; 1 = hydrogel, 0 = no hydrogel

SMILES | GELATION
N[C@@H](CC(=O)O)C(=O)N[C@@H](CC(=O)O)C(=O)N[C@@H](CC(=O)O)C(=O)N[C@@H](CC(=O)O)C(=O)O [DDDD] (H-DDDD-OH) | 0

same assay, conditions: vial-inverting method; representative hydrogels pH between 7.0 to 7.5

SMILES | hydrogel formation (in words)
CC(C)[C@H](NC(=O)[C@@H](N)Cc1c[nH]c2ccccc12)C(=O)N[C@@H](Cc1ccccc1)C(=O)N[C@@H](Cc1ccc(O)cc1)C(=O)O [WVFY] (H-WVFY-OH) | hydrogels

assay: Transmission electron microscope (negative staining) of peptide assemblies; conditions: TEM, negative staining with uranyl acetate, 120 kV; line of the table gives 30 mM
Method: We used the negative staining technique to observe the morphologies formed by peptides. A micropipette was used to load 10 μL of sample solution to a carbon-coated copper grid, and we used a piece of filter paper to remove the excess solution. After rinsing the grid with the deionized water, we used uranyl acetate to stain the sample for 1 minute and then rinsed the grid with deionized water again.

SMILES | Morphology
N[C@@H](CO)C(=O)N[C@@H](CO)C(=O)N[C@@H](Cc1ccccc1)C(=O)N[C@@H](Cc1ccccc1)C(=O)O [SSFF] (H-SSFF-OH) | fibre
CC[C@H](C)[C@H](NC(=O)[C@H](CC(C)C)NC(=O)[C@@H](NC(=O)[C@@H](N)CC(C)C)[C@@H](C)O)C(=O)O [LTLI] (H-LTLI-OH) | sheet
C[C@H](NC(=O)[C@@H](N)Cc1c[nH]c2ccccc12)C(=O)N[C@@H](Cc1ccc(O)cc1)C(=O)N[C@@H](Cc1ccccc1)C(=O)O [WAYF] (H-WAYF-OH) | fibre
CC(C)[C@H](NC(=O)[C@@H](N)Cc1c[nH]c2ccccc12)C(=O)N[C@@H](Cc1ccccc1)C(=O)N[C@@H](Cc1ccc(O)cc1)C(=O)O [WVFY] (H-WVFY-OH) | sheet
NCC(=O)N[C@@H](Cc1ccccc1)C(=O)N[C@@H](Cc1ccccc1)C(=O)N[C@@H](Cc1ccc(O)cc1)C(=O)O [GFFY] (H-GFFY-OH) | sheet
CC(C)C[C@H](N)C(=O)N[C@@H](Cc1c[nH]c2ccccc12)C(=O)N[C@@H](Cc1c[nH]c2ccccc12)C(=O)N[C@@H](Cc1ccccc1)C(=O)O [LWWF] (H-LWWF-OH) | aggregates
NC(=O)C[C@H](N)C(=O)N[C@@H](Cc1c[nH]c2ccccc12)C(=O)N[C@@H](Cc1c[nH]c2ccccc12)C(=O)N[C@@H](Cc1ccccc1)C(=O)O [NWWF] (H-NWWF-OH) | sphere
CC[C@H](C)[C@H](N)C(=O)N[C@H](C(=O)N[C@H](C(=O)N[C@@H](Cc1ccccc1)C(=O)O)[C@@H](C)CC)C(C)C [IVIF] (H-IVIF-OH) | sphere

same assay, conditions: TEM, negative staining with uranyl acetate, 120 kV; line of the table gives 60 mM

SMILES | Morphology
CC(C)[C@H](NC(=O)[C@@H]1CCCN1)C(=O)N[C@@H](Cc1ccccc1)C(=O)N[C@@H](Cc1c[nH]c2ccccc12)C(=O)O [PVFW] (H-PVFW-OH) | hybrid(needle+fibre)
CC(C)[C@H](NC(=O)[C@@H](NC(=O)[C@H](C)NC(=O)[C@@H](N)Cc1c[nH]c2ccccc12)C(C)C)C(=O)O [WAVV] (H-WAVV-OH) | fibre
CC(C)C[C@H](N)C(=O)N[C@@H](CO)C(=O)N[C@@H](Cc1ccccc1)C(=O)N[C@@H](Cc1c[nH]c2ccccc12)C(=O)O [LSFW] (H-LSFW-OH) | hybrid(sphere+fibre)

same assay, conditions: TEM, negative staining with uranyl acetate, 120 kV; line of the table gives 120 mM

SMILES | Morphology
N[C@@H](CC(=O)O)C(=O)N[C@@H](CC(=O)O)C(=O)N[C@@H](CC(=O)O)C(=O)N[C@@H](CC(=O)O)C(=O)O [DDDD] (H-DDDD-OH) | sphere

same assay, conditions: aqueous solution or hydrogel; negative staining

SMILES | morphology by TEM (in words)
CC(C)[C@H](NC(=O)[C@@H](N)Cc1c[nH]c2ccccc12)C(=O)N[C@@H](Cc1ccccc1)C(=O)N[C@@H](Cc1ccc(O)cc1)C(=O)O [WVFY] (H-WVFY-OH) | interlaced nanosheets
